Reference: ChEMBL document CHEMBL4507291 (2021)

Key:
[1] = target: Calcium/calmodulin-dependent protein kinase type 1B (Homo sapiens) (UniProt Q6P2M8)
[2] = target: Cyclin-dependent kinase 4 (Homo sapiens) (UniProt P11802)
[3] = target: Dual specificity protein kinase CLK3 (Homo sapiens) (UniProt P49761)
[4] = target: Casein kinase I isoform epsilon (Homo sapiens) (UniProt P49674)
[5] = system: Mast/stem cell growth factor receptor Kit (Homo sapiens), P10721 [V559D]
[6] = target: Cyclin-dependent kinase 16 (Homo sapiens) (UniProt Q00536)
[7] = target: Interferon-induced, double-stranded RNA-activated protein kinase (Homo sapiens) (UniProt P19525)
[8] = target: Serine/threonine-protein kinase SIK3 (Homo sapiens) (UniProt Q9Y2K2)
[9] = system: Proto-oncogene tyrosine-protein kinase receptor Ret (Homo sapiens), P07949 [V804M]
[10] = target: T1, Serine/threonine-protein kinase TAO2 (Homo sapiens) (UniProt Q9UL54)
T1 sequence (whole entry): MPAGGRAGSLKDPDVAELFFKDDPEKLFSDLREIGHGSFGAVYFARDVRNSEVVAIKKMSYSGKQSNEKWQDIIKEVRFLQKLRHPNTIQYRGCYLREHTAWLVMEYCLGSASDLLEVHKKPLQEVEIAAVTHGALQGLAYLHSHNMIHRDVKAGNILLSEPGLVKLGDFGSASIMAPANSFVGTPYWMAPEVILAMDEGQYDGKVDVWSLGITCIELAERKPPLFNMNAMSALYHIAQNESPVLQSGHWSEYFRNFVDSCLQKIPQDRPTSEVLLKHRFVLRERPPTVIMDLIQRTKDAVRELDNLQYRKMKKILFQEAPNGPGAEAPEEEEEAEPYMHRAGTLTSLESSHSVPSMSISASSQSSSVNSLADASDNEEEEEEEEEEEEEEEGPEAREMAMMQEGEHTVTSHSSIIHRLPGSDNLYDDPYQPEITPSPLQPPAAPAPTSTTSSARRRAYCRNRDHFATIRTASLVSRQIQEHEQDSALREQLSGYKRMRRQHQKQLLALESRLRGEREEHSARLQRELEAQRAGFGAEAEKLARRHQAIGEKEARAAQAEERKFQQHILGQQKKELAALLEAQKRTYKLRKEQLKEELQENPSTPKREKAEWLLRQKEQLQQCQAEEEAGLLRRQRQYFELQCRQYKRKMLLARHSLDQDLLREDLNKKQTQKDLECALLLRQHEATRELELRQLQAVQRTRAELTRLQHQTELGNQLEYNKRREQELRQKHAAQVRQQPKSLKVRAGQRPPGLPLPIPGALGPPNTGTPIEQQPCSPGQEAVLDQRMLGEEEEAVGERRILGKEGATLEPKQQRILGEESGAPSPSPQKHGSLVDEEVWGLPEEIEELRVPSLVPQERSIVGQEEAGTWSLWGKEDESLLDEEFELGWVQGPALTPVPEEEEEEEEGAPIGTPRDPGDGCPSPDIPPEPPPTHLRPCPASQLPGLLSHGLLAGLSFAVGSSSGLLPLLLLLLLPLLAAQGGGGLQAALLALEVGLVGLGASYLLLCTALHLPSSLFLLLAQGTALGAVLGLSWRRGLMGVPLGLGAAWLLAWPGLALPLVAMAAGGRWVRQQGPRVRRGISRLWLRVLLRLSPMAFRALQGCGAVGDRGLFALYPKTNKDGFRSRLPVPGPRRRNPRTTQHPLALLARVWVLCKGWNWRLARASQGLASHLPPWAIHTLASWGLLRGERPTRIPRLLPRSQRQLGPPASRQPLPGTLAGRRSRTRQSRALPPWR

[11] = target: Wee1-like protein kinase (Homo sapiens) (UniProt P30291)
[12] = target: Wee1-like protein kinase 2 (Homo sapiens) (UniProt P0C1S8)
[13] = target: Delta-type opioid receptor (Homo sapiens) (UniProt P41143); conditions: Compound concentration 10.0 uM
[14] = target: T2, Alpha-2C adrenergic receptor (Homo sapiens) (UniProt P18825); conditions: Compound concentration 10.0 uM
T2 sequence (whole entry): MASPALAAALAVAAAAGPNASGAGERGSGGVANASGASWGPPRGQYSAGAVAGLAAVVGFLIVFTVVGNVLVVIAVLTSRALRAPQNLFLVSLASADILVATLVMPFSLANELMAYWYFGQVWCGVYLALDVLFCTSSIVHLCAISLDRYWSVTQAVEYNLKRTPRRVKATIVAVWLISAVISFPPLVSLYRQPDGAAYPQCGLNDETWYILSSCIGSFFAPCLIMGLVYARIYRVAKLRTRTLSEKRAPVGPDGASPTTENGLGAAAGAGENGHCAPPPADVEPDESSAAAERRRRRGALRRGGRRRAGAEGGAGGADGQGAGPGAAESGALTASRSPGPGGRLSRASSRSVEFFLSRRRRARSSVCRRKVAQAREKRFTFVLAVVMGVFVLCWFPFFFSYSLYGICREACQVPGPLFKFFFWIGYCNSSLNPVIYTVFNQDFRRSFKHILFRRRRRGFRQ

[15] = target: T3, Muscarinic acetylcholine receptor M4 (Homo sapiens) (UniProt P08173); conditions: Compound concentration 10.0 uM
T3 sequence (whole entry): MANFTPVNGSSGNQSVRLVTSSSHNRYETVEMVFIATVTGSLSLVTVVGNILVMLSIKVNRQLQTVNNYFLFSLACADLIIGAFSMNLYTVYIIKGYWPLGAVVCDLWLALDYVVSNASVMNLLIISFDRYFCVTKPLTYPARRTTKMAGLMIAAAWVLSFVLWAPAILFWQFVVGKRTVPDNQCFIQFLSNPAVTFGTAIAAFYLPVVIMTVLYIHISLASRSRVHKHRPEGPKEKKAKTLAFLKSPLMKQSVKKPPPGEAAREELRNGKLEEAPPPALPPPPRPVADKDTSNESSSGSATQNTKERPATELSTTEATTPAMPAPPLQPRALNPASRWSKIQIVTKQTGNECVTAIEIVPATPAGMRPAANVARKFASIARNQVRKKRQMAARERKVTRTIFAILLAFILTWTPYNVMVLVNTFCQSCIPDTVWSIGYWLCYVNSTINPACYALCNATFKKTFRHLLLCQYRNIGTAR

Rattus norvegicus = species: Rattus norvegicus; conditions: Compound concentration 10.0 uM
[16] = Compound concentration 1000.0 nM
[17] = Compound concentration 100.0 nM

Chain of Delta-type opioid receptor (Homo sapiens) (P41143 whole entry): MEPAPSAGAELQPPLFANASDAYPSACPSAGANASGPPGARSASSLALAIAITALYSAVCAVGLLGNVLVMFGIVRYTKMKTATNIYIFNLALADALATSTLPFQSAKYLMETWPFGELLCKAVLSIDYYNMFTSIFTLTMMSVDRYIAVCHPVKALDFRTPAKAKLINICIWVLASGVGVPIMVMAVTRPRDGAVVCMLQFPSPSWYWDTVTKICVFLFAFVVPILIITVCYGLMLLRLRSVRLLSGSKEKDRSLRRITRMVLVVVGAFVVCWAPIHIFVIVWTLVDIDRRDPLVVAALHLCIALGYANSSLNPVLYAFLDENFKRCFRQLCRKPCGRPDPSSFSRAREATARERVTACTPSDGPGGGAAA
Chain of Wee1-like protein kinase (Homo sapiens) (P30291 whole entry, looked up): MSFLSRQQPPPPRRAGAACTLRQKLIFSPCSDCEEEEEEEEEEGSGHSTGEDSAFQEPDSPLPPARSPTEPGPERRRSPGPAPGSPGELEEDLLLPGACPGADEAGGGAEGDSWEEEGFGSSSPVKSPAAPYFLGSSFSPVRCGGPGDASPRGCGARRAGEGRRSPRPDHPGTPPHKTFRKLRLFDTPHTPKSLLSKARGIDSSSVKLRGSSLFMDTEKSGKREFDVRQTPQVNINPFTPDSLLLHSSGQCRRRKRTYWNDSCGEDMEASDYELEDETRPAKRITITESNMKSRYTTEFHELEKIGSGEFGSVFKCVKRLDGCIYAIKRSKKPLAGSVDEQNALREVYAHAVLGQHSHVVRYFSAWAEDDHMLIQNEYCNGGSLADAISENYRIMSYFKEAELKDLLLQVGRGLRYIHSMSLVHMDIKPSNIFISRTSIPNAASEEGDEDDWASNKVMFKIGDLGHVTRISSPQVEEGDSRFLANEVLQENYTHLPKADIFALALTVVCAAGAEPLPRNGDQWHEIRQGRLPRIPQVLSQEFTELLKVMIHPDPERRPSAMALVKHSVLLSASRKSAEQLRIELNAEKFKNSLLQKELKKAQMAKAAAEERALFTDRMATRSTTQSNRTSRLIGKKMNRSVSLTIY
Chain of Serine/threonine-protein kinase SIK3 (Homo sapiens) (Q9Y2K2 whole entry, looked up): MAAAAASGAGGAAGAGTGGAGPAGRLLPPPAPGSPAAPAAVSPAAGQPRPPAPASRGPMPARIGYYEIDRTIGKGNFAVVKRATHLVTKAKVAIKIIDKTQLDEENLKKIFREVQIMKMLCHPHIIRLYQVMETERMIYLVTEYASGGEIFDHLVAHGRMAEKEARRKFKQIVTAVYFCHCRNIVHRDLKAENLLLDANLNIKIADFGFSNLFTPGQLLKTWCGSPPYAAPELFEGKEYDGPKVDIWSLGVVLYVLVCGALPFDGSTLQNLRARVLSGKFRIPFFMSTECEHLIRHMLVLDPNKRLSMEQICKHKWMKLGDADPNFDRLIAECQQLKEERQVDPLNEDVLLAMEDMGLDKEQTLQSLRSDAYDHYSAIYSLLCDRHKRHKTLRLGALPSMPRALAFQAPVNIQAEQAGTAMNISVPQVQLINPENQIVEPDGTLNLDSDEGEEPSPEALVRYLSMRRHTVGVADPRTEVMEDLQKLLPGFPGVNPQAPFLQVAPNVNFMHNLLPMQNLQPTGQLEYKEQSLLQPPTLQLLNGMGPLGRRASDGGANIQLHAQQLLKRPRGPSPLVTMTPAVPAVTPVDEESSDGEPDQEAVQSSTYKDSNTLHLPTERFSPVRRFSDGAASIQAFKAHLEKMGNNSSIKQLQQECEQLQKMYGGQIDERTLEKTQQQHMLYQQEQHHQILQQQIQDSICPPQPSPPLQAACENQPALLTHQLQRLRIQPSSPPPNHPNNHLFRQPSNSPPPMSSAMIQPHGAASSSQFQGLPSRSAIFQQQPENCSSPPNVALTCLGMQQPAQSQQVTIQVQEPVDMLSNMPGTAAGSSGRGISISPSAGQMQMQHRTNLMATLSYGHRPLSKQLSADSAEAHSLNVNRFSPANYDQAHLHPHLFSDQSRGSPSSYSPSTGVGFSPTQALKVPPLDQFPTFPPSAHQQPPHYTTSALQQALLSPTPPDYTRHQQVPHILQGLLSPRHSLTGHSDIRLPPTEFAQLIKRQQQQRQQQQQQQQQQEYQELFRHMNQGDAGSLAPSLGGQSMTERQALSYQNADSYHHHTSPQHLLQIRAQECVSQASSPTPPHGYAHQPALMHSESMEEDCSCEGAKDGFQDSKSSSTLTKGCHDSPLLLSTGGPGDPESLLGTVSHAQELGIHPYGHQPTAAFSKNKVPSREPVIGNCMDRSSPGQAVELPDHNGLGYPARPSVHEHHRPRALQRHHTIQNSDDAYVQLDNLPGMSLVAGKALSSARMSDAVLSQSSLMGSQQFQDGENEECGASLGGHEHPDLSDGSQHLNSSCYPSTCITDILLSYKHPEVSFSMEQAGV
Chain of Cyclin-dependent kinase 4 (Homo sapiens) (P11802 whole entry): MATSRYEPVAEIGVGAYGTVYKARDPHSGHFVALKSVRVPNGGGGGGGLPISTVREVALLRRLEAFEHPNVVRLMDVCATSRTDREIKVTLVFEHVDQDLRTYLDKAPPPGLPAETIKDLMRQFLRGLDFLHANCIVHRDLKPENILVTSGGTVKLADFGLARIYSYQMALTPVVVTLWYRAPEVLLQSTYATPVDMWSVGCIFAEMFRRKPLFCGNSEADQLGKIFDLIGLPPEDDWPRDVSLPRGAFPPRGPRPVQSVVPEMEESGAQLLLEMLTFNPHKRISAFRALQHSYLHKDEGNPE
Chain of Calcium/calmodulin-dependent protein kinase type 1B (Homo sapiens) (Q6P2M8 whole entry): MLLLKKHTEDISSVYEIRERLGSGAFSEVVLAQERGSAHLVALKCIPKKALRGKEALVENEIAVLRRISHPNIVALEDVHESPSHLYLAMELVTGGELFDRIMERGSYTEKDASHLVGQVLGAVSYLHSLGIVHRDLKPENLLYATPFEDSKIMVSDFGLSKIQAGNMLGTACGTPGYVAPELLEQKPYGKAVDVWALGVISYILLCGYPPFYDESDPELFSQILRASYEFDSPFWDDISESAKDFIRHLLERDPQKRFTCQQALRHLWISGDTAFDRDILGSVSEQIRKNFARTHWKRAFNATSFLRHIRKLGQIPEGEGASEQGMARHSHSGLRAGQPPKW
Chain of Proto-oncogene tyrosine-protein kinase receptor Ret (Homo sapiens), P07949 [V804M] (P07949 whole entry V804M): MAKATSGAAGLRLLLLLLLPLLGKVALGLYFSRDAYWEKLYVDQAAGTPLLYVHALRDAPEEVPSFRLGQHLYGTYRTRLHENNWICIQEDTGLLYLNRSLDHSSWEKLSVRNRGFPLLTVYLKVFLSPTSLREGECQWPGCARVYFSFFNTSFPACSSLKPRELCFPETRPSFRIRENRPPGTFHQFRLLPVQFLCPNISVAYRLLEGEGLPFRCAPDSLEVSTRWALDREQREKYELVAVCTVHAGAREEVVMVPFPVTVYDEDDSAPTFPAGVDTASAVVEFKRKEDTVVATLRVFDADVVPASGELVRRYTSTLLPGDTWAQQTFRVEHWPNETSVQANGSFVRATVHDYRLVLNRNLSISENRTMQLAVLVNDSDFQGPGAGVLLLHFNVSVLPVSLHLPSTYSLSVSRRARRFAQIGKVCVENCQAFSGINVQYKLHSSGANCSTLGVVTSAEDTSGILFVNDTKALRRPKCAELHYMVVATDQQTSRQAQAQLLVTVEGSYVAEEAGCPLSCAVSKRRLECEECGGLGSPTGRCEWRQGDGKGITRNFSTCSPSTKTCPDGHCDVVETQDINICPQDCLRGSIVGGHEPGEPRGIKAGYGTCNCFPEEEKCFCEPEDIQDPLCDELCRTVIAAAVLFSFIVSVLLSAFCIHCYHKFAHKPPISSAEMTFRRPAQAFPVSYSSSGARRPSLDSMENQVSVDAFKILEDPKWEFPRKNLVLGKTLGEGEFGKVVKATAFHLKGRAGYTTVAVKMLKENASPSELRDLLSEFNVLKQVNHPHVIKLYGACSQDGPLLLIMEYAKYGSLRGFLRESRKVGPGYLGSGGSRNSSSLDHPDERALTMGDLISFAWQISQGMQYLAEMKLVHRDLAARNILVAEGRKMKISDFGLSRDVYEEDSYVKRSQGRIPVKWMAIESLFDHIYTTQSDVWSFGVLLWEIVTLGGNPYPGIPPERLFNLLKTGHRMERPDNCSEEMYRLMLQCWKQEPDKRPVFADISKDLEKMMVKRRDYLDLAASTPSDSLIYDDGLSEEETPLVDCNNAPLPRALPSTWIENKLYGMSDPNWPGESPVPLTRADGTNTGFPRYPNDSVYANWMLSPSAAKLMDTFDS
Chain of Wee1-like protein kinase 2 (Homo sapiens) (P0C1S8 whole entry, looked up): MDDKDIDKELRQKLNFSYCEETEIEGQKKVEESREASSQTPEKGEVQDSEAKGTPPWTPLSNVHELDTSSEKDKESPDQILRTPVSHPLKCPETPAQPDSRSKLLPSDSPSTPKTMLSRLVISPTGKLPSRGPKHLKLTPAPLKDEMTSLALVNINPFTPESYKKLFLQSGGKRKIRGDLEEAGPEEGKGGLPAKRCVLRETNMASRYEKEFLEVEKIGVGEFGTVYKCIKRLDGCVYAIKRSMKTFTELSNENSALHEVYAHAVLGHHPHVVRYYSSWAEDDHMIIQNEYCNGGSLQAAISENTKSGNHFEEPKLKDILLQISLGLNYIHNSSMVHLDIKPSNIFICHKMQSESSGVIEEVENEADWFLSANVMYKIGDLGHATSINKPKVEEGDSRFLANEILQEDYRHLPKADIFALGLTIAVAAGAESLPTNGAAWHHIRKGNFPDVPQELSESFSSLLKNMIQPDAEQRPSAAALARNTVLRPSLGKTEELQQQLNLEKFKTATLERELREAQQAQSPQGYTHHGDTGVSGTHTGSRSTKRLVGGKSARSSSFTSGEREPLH

C[C@@H]1CN(c2cc(-c3nn(C)c4ccc(OC5(C)CC5)cc34)ncn2)C[C@H](C)O1 [MLi-2-NC]
inactive: residual activity [1, 16] 100% | residual activity [2, 16] 71% | residual activity [3, 16] 98% | residual activity [4, 16] 100% | residual activity [5, 16] 100% | residual activity [6, 16] 87% | residual activity [7, 16] 100% | residual activity [8, 16] 63% | residual activity [9, 16] 100% | residual activity [10, 16] 80% | residual activity [11, 16] 100% | residual activity [12, 16] 96% | inhibition [13] 23.3% | inhibition [14] 15.1% | inhibition [15] 10.6% | inhibition (Rattus norvegicus) 46.1%

C[C@@H]1CN(c2cc(-c3n[nH]c4ccc(OC5(C)CC5)cc34)ncn2)C[C@H](C)O1 [MLi-2]
inactive: residual activity [1, 17] 67% | residual activity [2, 17] 68% | residual activity [3, 17] 94% | residual activity [4, 17] 100% | residual activity [5, 17] 100% | residual activity [6, 17] 85% | residual activity [7, 17] 100% | residual activity [8, 17] 74% | residual activity [9, 17] 97% | residual activity [10, 17] 73% | residual activity [11, 17] 97% | residual activity [12, 17] 100% | inhibition [13] 6.66% | inhibition [14] 7.85% | inhibition [15] -4.79% | inhibition (Rattus norvegicus) 5.96%
